Patent US6656921B1, “Use of zinc hyaluronate against peptic ulcer” (Richter Gedeon Vegyeszeti Gyar RT., priority 1997, dated 2003)

Test system: acidified ethanol induced gastric damage
Test: Effect of L-NAME (endogenous NO) on protection against acidified-ethanol induced gastric damage
Format: in vivo, rat
Description: To study the mechanism of action of the compound to be tested, the involvement of endogenous NO in the development of acidified-ethanol induced gastric damage was also studied by intraperitoneal administration of L-N^G-nitroarginine methyl ester (L-NAME). L-NAME at a dose of 25 mg/kg was injected 15 minutes before the test compound. In subsequent experiments the test compound (p.o.), L-NAME (25 mg/kg i.p.), L-arginine (400 mg/kg i.v.) were administered 30, 45 or 60 minutes before oral administration of acidified-ethanol.
The connection between the cytoprotective effect of zinc hyaluronate and endogenic NO was studied by using an inhibitor of the nitrogen(II) oxide biosynthesis namely, N^G-nitro-L-arginine methyl ester (L-NAME). Considering that zinc hyaluronate(II) and zinc hyaluronate(M) had shown the same activity in acidified ethanol test, the latter was the only one tested in this experiment.

[1] = D-Arg + L-NAME + ZH/M, 400 + 25 + 50 mg/kg
[2] = L-Arg + L-NAME + ZH/M, 400 + 25 + 50 mg/kg

Substance: zinc hyaluronate [Zinc hyaluronate (M)]
- Inhibition (compared with the vehicle + vehicle group) [1]: 48.4%
- Lesion length/stomach mm ± S.E.M. [1]: 31.2 ± 3.5*d mm
- Inhibition (compared with the vehicle + vehicle group) [2]: 60.2%
- Lesion length/stomach mm ± S.E.M. [2]: 24.1 ± 4.4*c mm
- Effect of L-NAME pretreatment on the gastroprotective activity (in words) (L-NAME 25 mg/kg): considerably reduced
- Inhibition (compared with the vehicle + vehicle group) (L-NAME + ZH/M, 25 + 50 mg/kg): 31.9%
- Lesion length/stomach mm ± S.E.M. (L-NAME + ZH/M, 25 + 50 mg/kg): 41.2 ± 4.6*b mm
- Inhibition (compared with the vehicle + vehicle group) (Vehicle + ZH/M, 0 + 50 mg/kg): 69.6%
- Lesion length/stomach mm ± S.E.M. (Vehicle + ZH/M, 0 + 50 mg/kg): 18.4 ± 2.3 mm
